Measured values taken from ChEMBL document CHEMBL4483862, “Open-source discovery of chemical leads for next-generation chemoprotective antimalarials” (2018).

Test system: Plasmodium berghei
Assay: Luciferase/luciferin-expressing antifolate-resistant parasites were used to infect a culture of HepG2 cells that were pre-incubated with compounds. Infected hepatocytes emit light due to the luciferase reaction. Assay results are presented as the percent inhibition of light emission compared to control. […]
Format: functional
Conditions: sporozoite; for IC90: read-out: LUCIFERASE INFECTION ASSAY - IC90

Compound	IC90 [µM]	further results
Cc1ccc(-c2nnc3c(C(F)(F)F)nc4ccccc4n23)cc1	> 10.1	IC50 (HEPG2TOX_HILL_SLOPE 6.88, HEPG2TOX_R_SQUARED 0.907, PBLUC_HILL_SLOPE 7.21, PBLUC_R_SQUARED 0.0351, read-out: LUCIFERASE INFECTION ASSAY - IC50): 8.59 µM
O=C(Nc1ccccc1C(=O)Nc1nnc(C(F)(F)F)s1)c1ccccc1	1.89	IC50 (HEPG2TOX_HILL_SLOPE 6.74, HEPG2TOX_R_SQUARED 0.749, PBLUC_HILL_SLOPE 2.08, PBLUC_R_SQUARED 0.449, read-out: LUCIFERASE INFECTION ASSAY - IC50): 0.658 µM
Nc1nc(Cl)cc(Sc2ccc3ccccc3c2)n1	> 11.5	IC50 (HEPG2TOX_HILL_SLOPE 6.9, HEPG2TOX_R_SQUARED 0.449, read-out: LUCIFERASE INFECTION ASSAY - IC50): > 11.5 µM
COc1cc(NC(=O)N2CCc3nc(NCc4cccc(Oc5ccccc5)c4)ncc3C2)cc(OC)c1OC	> 6.09	IC50 (HEPG2TOX_HILL_SLOPE 6.86, HEPG2TOX_R_SQUARED 0.395, PBLUC_HILL_SLOPE 8.32, PBLUC_R_SQUARED 0.196, read-out: LUCIFERASE INFECTION ASSAY - IC50): 5.31 µM
CC(=O)Nc1ccc(-c2cnc3ccc(-c4ccc(S(C)(=O)=O)cc4)nn23)cc1	7.89	IC50 (HEPG2TOX_HILL_SLOPE 6.82, HEPG2TOX_R_SQUARED 0.682, PBLUC_HILL_SLOPE 2.96, PBLUC_R_SQUARED 0.544, read-out: LUCIFERASE INFECTION ASSAY - IC50): 3.75 µM
O=C(Nc1ccccc1)c1cc2sccc2s1	> 12.7	IC50 (HEPG2TOX_HILL_SLOPE 6.8, HEPG2TOX_R_SQUARED 0.21, read-out: LUCIFERASE INFECTION ASSAY - IC50): > 12.7 µM
CC(C)c1cccc(-c2nc3ccnc(NCc4ccc(N(C)C)cc4)c3[nH]2)c1	> 10	IC50 (HEPG2TOX_HILL_SLOPE 6.72, HEPG2TOX_R_SQUARED 0.795, PBLUC_HILL_SLOPE 11.9, PBLUC_R_SQUARED 0.428, read-out: LUCIFERASE INFECTION ASSAY - IC50): 8.78 µM
CC1c2ccsc2CCN1C(=S)NC(=O)c1ccc(Cl)cc1 (stereo unspecified)	> 9.4	IC50 (HEPG2TOX_HILL_SLOPE 6.89, HEPG2TOX_R_SQUARED 0.823, PBLUC_HILL_SLOPE 41.7, PBLUC_R_SQUARED 0.0283, read-out: LUCIFERASE INFECTION ASSAY - IC50): 9.18 µM
c1cc(CNc2ncnc3nc[nH]c23)cc(COCc2ccco2)c1	> 10	IC50 (HEPG2TOX_HILL_SLOPE 6.82, HEPG2TOX_R_SQUARED 0.307, PBLUC_HILL_SLOPE 1.97, PBLUC_R_SQUARED 0.21, read-out: LUCIFERASE INFECTION ASSAY - IC50): 6.9 µM
CCCCN(C)CC(O)Cn1c2ccc(Cl)cc2c2cc(Cl)ccc21 (stereo unspecified)	6.48	IC50 (HEPG2TOX_HILL_SLOPE 6.86, HEPG2TOX_R_SQUARED 0.608, PBLUC_HILL_SLOPE 4.67, PBLUC_R_SQUARED 0.619, read-out: LUCIFERASE INFECTION ASSAY - IC50): 4.05 µM
O=S(=O)(NC1CCN(c2nn3cc(-c4ccccc4)nc3s2)CC1)c1cccs1	3.14	IC50 (HEPG2TOX_HILL_SLOPE 6.79, HEPG2TOX_R_SQUARED 0.144, PBLUC_HILL_SLOPE 1.24, PBLUC_R_SQUARED 0.735, read-out: LUCIFERASE INFECTION ASSAY - IC50): 0.534 µM
Cc1ccc(CSc2nnc(NCc3ccccc3)s2)cc1	> 10	IC50 (HEPG2TOX_HILL_SLOPE 6.81, HEPG2TOX_R_SQUARED 0.677, read-out: LUCIFERASE INFECTION ASSAY - IC50): > 10 µM
COc1ccc(CCNc2nc(C)nc3sc(-c4ccccc4)cc23)cc1OC	> 10	IC50 (HEPG2TOX_HILL_SLOPE 6.76, HEPG2TOX_R_SQUARED 0.162, read-out: LUCIFERASE INFECTION ASSAY - IC50): > 10 µM
Fc1cccc(-c2nc3ccnc(NCc4ccccc4)c3[nH]2)c1	4.56	IC50 (HEPG2TOX_HILL_SLOPE 6.86, HEPG2TOX_R_SQUARED 0.629, PBLUC_HILL_SLOPE 1.32, PBLUC_R_SQUARED 0.696, read-out: LUCIFERASE INFECTION ASSAY - IC50): 0.868 µM
O=C(Cc1cn2ccsc2n1)NNC(=O)c1cccnc1Nc1cccc(C(F)(F)F)c1	7.63	IC50 (HEPG2TOX_HILL_SLOPE 6.77, HEPG2TOX_R_SQUARED 0.513, PBLUC_HILL_SLOPE 2.49, PBLUC_R_SQUARED 0.696, read-out: LUCIFERASE INFECTION ASSAY - IC50): 3.16 µM
CC1=C(C(=O)OC(C)C)C(c2ccccc2)n2nc(-c3cccs3)nc2N1 (stereo unspecified)	> 10	IC50 (HEPG2TOX_HILL_SLOPE 6.88, HEPG2TOX_R_SQUARED 0.357, read-out: LUCIFERASE INFECTION ASSAY - IC50): > 10 µM
O=C(CCn1ccnn1)Nc1ccc(Sc2ccc(Br)cc2)cc1	> 10	IC50 (HEPG2TOX_HILL_SLOPE 6.85, HEPG2TOX_R_SQUARED 0.647, PBLUC_HILL_SLOPE 1.94, PBLUC_R_SQUARED 0.683, read-out: LUCIFERASE INFECTION ASSAY - IC50): 6.08 µM

Compound	IC90 [µM]	further results
CCOC(=O)CN(c1cc(OC(C)C)c(Cl)cc1Cl)S(=O)(=O)c1ccc(Cl)cc1	> 6.86	IC50 (HEPG2TOX_HILL_SLOPE 6.82, HEPG2TOX_R_SQUARED 0.403, PBLUC_HILL_SLOPE 1.36, PBLUC_R_SQUARED 0.622, read-out: LUCIFERASE INFECTION ASSAY - IC50): 3.13 µM
COc1nc2c(c(-c3c(F)cccc3Cl)c1C#N)Cc1ccccc1-2	> 9.41	IC50 (HEPG2TOX_HILL_SLOPE 6.94, HEPG2TOX_R_SQUARED 0.218, PBLUC_HILL_SLOPE 33.2, PBLUC_R_SQUARED 0.233, read-out: LUCIFERASE INFECTION ASSAY - IC50): 9 µM
COc1ccc(-c2csc3ncnc(NCc4cccnc4)c23)cc1	> 10	IC50 (HEPG2TOX_HILL_SLOPE 6.97, HEPG2TOX_R_SQUARED 0.88, PBLUC_HILL_SLOPE 2.74, PBLUC_R_SQUARED 0.795, read-out: LUCIFERASE INFECTION ASSAY - IC50): 6.71 µM
Cc1cccc(N2CCN(C(=O)c3ccccc3SCC(=O)Nc3ccc(F)cc3)CC2)c1C	> 10	IC50 (HEPG2TOX_HILL_SLOPE 6.74, HEPG2TOX_R_SQUARED 0.191, PBLUC_HILL_SLOPE 2.5, PBLUC_R_SQUARED 0.41, read-out: LUCIFERASE INFECTION ASSAY - IC50): 5.48 µM
Cc1cccc(Nc2ccccc2C(=O)OCC(=O)Nc2cccc(C#N)c2)c1C	> 10	IC50 (HEPG2TOX_HILL_SLOPE 6.86, HEPG2TOX_R_SQUARED 0.37, PBLUC_HILL_SLOPE 1.78, PBLUC_R_SQUARED 0.801, read-out: LUCIFERASE INFECTION ASSAY - IC50): 3.16 µM
O=c1c(Cl)cc(C(F)(F)F)cn1Cc1csc(Nc2ccccc2)n1	> 10	IC50 (HEPG2TOX_HILL_SLOPE 6.73, HEPG2TOX_R_SQUARED 0.639, PBLUC_HILL_SLOPE 3.67, PBLUC_R_SQUARED 0.234, read-out: LUCIFERASE INFECTION ASSAY - IC50): 8.88 µM
O=C(CC1CCCC1)N1CCc2nc(NCc3cccc(Oc4ccccc4)c3)ncc2C1	> 7.46	IC50 (HEPG2TOX_HILL_SLOPE 6.79, HEPG2TOX_R_SQUARED 0.796, PBLUC_HILL_SLOPE 75.4, PBLUC_R_SQUARED 0.123, read-out: LUCIFERASE INFECTION ASSAY - IC50): 7.45 µM
CC1CCCC(N2CC(C(=O)Nc3nc(-c4ccccn4)cs3)CC2=O)C1C (stereo unspecified)	3.66	IC50 (HEPG2TOX_HILL_SLOPE 6.97, HEPG2TOX_R_SQUARED 0.551, PBLUC_HILL_SLOPE 16.8, PBLUC_R_SQUARED 0.476, read-out: LUCIFERASE INFECTION ASSAY - IC50): 3.21 µM
CNc1nc2cnc(Nc3cccc(OC(F)(F)F)c3)cc2n1CCOC	> 10	IC50 (HEPG2TOX_HILL_SLOPE 6.78, HEPG2TOX_R_SQUARED 0.0669, read-out: LUCIFERASE INFECTION ASSAY - IC50): > 10 µM
CCN(CC(O)COc1ccccc1-c1ccccc1)C1CCCCC1 (stereo unspecified)	9.13	IC50 (HEPG2TOX_HILL_SLOPE 6.72, HEPG2TOX_R_SQUARED 0.0493, PBLUC_HILL_SLOPE 495, PBLUC_R_SQUARED 0.169, read-out: LUCIFERASE INFECTION ASSAY - IC50): 9.09 µM
COc1ccccc1NS(=O)(=O)c1ccc2c(c1)N=Cc1c(C)nn(-c3ccc(Cl)cc3)c1O2	> 10	IC50 (HEPG2TOX_HILL_SLOPE 6.8, HEPG2TOX_R_SQUARED 0.772, PBLUC_HILL_SLOPE 15.5, PBLUC_R_SQUARED 0.126, read-out: LUCIFERASE INFECTION ASSAY - IC50): 9.36 µM
O=[N+]([O-])c1ccc(N2CCN(c3ncccc3C(F)(F)F)CC2)nc1	> 9.34	IC50 (HEPG2TOX_HILL_SLOPE 6.77, HEPG2TOX_R_SQUARED 0.465, read-out: LUCIFERASE INFECTION ASSAY - IC50): > 9.34 µM
Cc1cccc(OCCNC(=O)c2cc(S(=O)(=O)N3CCOCC3)ccc2N2CCOCC2)c1	> 10	IC50 (HEPG2TOX_HILL_SLOPE 6.77, HEPG2TOX_R_SQUARED 0.742, read-out: LUCIFERASE INFECTION ASSAY - IC50): > 10 µM
C/C(=N\NC(=S)Nc1cccc(C(F)(F)F)c1)c1cc(Cl)ccc1O	> 8.51	IC50 (HEPG2TOX_HILL_SLOPE 6.81, HEPG2TOX_R_SQUARED 0.836, PBLUC_HILL_SLOPE 11, PBLUC_R_SQUARED 0.0541, read-out: LUCIFERASE INFECTION ASSAY - IC50): 7.79 µM
COc1ccc([N+]2=C3CCCCCN3CC2(O)c2ccc(-c3ccccc3)cc2)cc1 (stereo unspecified)	> 10	IC50 (HEPG2TOX_HILL_SLOPE 6.91, HEPG2TOX_R_SQUARED 0.498, PBLUC_HILL_SLOPE 1.91, PBLUC_R_SQUARED 0.528, read-out: LUCIFERASE INFECTION ASSAY - IC50): 3.24 µM
CC(Cc1cccs1)N(Cc1ccc(Cl)cc1)C(=O)c1cc(S(=O)(=O)N2CCOCC2)c(Cl)cc1Cl (stereo unspecified)	> 10	IC50 (HEPG2TOX_HILL_SLOPE 6.93, HEPG2TOX_R_SQUARED 0.0438, read-out: LUCIFERASE INFECTION ASSAY - IC50): > 10 µM
